Measurements taken from patent US20260273078A1, “AN INJECTABLE DELIVERY SYSTEM FOR LONG-ACTING ADMINISTRATION OF DRUGS” (priority 2023, published 2026).
“Also recorded” adds a separate entry of the source.

Columns and labels:
proteinase K = proteinase K (Parengyodontium album, UniProt P06873); assay: Biostability after incubation with proteinase K over 28 days; assay type: in vitro ADME; conditions: up to 28 days
Text: L-peptide NapFFKY(p)G-OH (small circle) and D-peptide NapffkY(p)G-OH (upright triangle) are peptide-only controls that also form hydrogels in response to phosphatase enzymes.

HIV = conditions: cited from earlier work

proteinase K, sequence (P06873 106-384): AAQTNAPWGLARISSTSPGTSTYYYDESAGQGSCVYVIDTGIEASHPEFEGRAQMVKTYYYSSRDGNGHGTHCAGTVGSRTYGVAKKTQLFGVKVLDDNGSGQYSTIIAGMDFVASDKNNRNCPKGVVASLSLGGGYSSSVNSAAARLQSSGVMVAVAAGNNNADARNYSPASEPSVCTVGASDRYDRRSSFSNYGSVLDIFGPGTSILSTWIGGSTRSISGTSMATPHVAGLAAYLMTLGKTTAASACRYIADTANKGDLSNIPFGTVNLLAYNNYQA

| Compound | Biostability in the presence of proteinase-K (in words) (proteinase K) | IC50 range (HIV) [µg/mL] |
| --- | --- | --- |
| NapffkY(p)G-OH [D-peptides, reference compound] | significant stability after 28 days | – |
| Cc1cn([C@H]2C[C@H](N=[N+]=[N-])[C@@H](CO)O2)c(=O)[nH]c1=O [zidovudine] | – | 0.03 to 0.13 |
| (NPhe)4GGGGKY(p)-OH [PP4G L-peptide variant] | breaks down between days; also recorded: breaks down within days | – |
| NCCCC[C@H](NC(=O)[C@H](Cc1ccccc1)NC(=O)[C@H](Cc1ccccc1)NC(=O)Cc1ccc2ccccc2c1)C(=O)N[C@@H](Cc1ccc(OP(=O)(O)O)cc1)C(=O)NCC(=O)O [L-peptide, NapFFKY(p)G-OH, reference compound] | degrades rapidly, within hours | – |
